We go through 40 sequences from the OligoGym collection.

Where “and” joins values, the source holds several entries; their conditions need not be identical. Equal entries are not always repeated. After the bases stand the sugars from the 5' end (letter, count) and the backbone: PS all phosphorothioate, else s phosphorothioate and o phosphodiester by linkage. Methylation of C is not given here. e = 2'-O-(2-methoxyethyl) (MOE); k = constrained ethyl (cEt); d = 2'-deoxy (DNA)

The target of the data set is IRF4. The note with it: ASO.

Turning to CGTAATACAAATAAAG (sugars k3 d10 k3, PS), the target mRNA inhibition (SK-MEL-28, 4 µM) is 3%. With “GCAGTGATGTCAGGTT (sugars kkddddddddddkeke, PS)”, the target mRNA inhibition runs as follows: (MM.1R, 0.074 µM) 25%; (MM.1R, 0.222 µM) 45%; (MM.1R, 0.666 µM) 63%; (MM.1R, 1 µM) 67%; (MM.1R, 2 µM) 85%. As to CCTTACCTGACAAGAA (sugars k3 d10 k3, PS), the target mRNA inhibition (MM.1R, 1 µM) is -11%. For AAATAGCATCAGAGCT (sugars k3 d10 k3, PS), the target mRNA inhibition (SK-MEL-28, 4 µM) came to 13%. For “TGGTTGGCTGGTCTTT (sugars kkdddddddddkdkdk, PS)”, the target mRNA inhibition (MM.1R, 1 µM) was 51%. On to “TTATATACTGGTTGGT (sugars kkddddddddddkeke, PS)”, for which the target mRNA inhibition (MM.1R, 1 µM) stood at 47%. For the sequence GAGCTGTGATGAGCTT (sugars k3 d10 k3, PS), the target mRNA inhibition (SK-MEL-28, 4 µM) was 10%. The same measure, in the same setting: then GATATAAATAGCTGTT (sugars k3 d10 k3, PS), with 37%. On to “GTGTGCTTGCCAAGCC (sugars kddddddddddkekek, PS)”, for which, where the note is “MM.1R, 1 µM”, the target mRNA inhibition is 40% and 23%. As for CCGAAAAGACTGGAGT (sugars k3 d10 k3, PS), the target mRNA inhibition (SK-MEL-28, 4 µM) was 57%. Same read-out and setting: then TGATATTAGAGACTGT (sugars k3 d10 k3, PS), with 60%. As to “TGCTTGAGGTTTTCCT (sugars kdddddddddkekeke, PS)”, the target mRNA inhibition (MM.1R, 1 µM) amounted to 9%. On to CGACACGCGCCGCTCG (sugars k3 d10 k3, PS), for which the target mRNA inhibition is -6% (MM.1R, 0.0625 µM); -10% (MM.1R, 0.25 µM); -13% (MM.1R, 4 µM). On to GGTCTGAGTTGTACAG (sugars k3 d10 k3, PS), for which the target mRNA inhibition (MM.1R, 1 µM) was determined as 20%. For the sequence GGCATCATGTAGTTGT (sugars k3 d10 k3, PS), the target mRNA inhibition (MM.1R, 1 µM) is -1%. In the case of AGCCACTGGCGGAGCT (sugars k3 d10 k3, PS), the target mRNA inhibition (SK-MEL-28, 4 µM) worked out at 38%. Take GGAGATCCGGCAGCCC (sugars k3 d10 k3, PS): the target mRNA inhibition (SK-MEL-28, 4 µM) was 23%. For the sequence GGGCACAAGCATAAAA (sugars k3 d10 k3, PS), the target mRNA inhibition (SK-MEL-28, 4 µM) is 20%. The same measure, in the same setting: in the case of CGTTCTCCCACACCAG (sugars k4 d8 k4, PS) it was -1%. As for “CGTGTGCTTGCCAAGC (sugars kkdddddddddkekek, PS)”, the target mRNA inhibition (MM.1R, 1 µM) is 49% and 43%. Turning to TTTCATAGCTAGTTCA (sugars k3 d10 k3, PS), the target mRNA inhibition (SK-MEL-28, 4 µM) amounted to 56%. Still for that read-out and setting: then GGTAATCTTCTGGATT (sugars k3 d10 k3, PS), with 30%. As to TCCATAGAGCCAGAGC (sugars k3 d10 k3, PS), the target mRNA inhibition (MM.1R, 1 µM) was 20%.

As to AGAACGAGGTAAATCT (sugars k3 d10 k3, PS), the target mRNA inhibition (SK-MEL-28, 4 µM) was determined as 40%. Still for that read-out and setting: then CGGGAATTTCCATTGG (sugars k3 d10 k3, PS), with 50%; and CCACTATTCGAGAGAA (sugars k3 d10 k3, PS), with 57%. Take GGCGGATAGATCTGTG (sugars k3 d10 k3, PS): the target mRNA inhibition (SK-MEL-28, 4 µM) was found to be 51%. Same read-out and setting: then CGCGCAAAGGGCAAGG (sugars k3 d10 k3, PS), with 34%. Turning to “ACACTTTTAGAGAGGA (sugars kkddddddddddkeke, PS)”, under “MM.1R, 1 µM”, the target mRNA inhibition was 14%. For TGGTACGGGATTTCCG (sugars k3 d10 k3, PS), the target mRNA inhibition (SK-MEL-28, 4 µM) stood at 37%. The same measure, in the same setting: in the case of AAAGGCCAAATTGCAA (sugars k3 d10 k3, PS) it was 52%; in that of TTTATGAGCTTCCACA (sugars k3 d10 k3, PS), 54%. GCTGAGAGTTCAGGTC (sugars k3 d10 k3, PS): the target mRNA inhibition (MM.1R, 1 µM) amounted to 7%. For GTATTACTCTTAGGCA (sugars k3 d10 k3, PS), the target mRNA inhibition by setting is: (MM.1R, 0.0625 µM) 13%; (MM.1R, 0.074 µM) 15%; (MM.1R, 0.222 µM) 7%; (MM.1R, 0.25 µM) 24%; (MM.1R, 0.666 µM) 21%; (MM.1R, 1 µM) 41%. Besides, the target mRNA inhibition is, setting by setting: (MM.1R, 2 µM) 51%; (MM.1R, 4 µM) 69%; (SK-MEL-28, 4 µM) 64%. As for TGATAGGTATACTTAA (sugars k3 d10 k3, PS), the target mRNA inhibition (SK-MEL-28, 4 µM) was found to be 28%. Still for that read-out and setting: in the case of GCTGTCGATCTGGTCG (sugars k3 d10 k3, PS) it was 9%; in that of CAAGGAGGCGGGCCTT (sugars k3 d10 k3, PS), -2%. Same read-out and setting: in the case of GATCATCAACTTCTTT (sugars k3 d10 k3, PS) it was 43%; in that of AACAGATAGTTAAGTA (sugars k3 d10 k3, PS), 19%. With GGACGAACGCGCAAAA (sugars k3 d10 k3, PS), the target mRNA inhibition (SK-MEL-28, 4 µM) came to 35%.
